Laboratory results: patent publication US8420670B2 (Abbott Laboratories, priority 2007, dated 2013)
Structures can show the parent of a compound that is named as a salt.

Key:
[1] = target: T1, human GlyT1c transporter (Homo sapiens, UniProt P48067); experiment: [3H]-(R)-NPTS radioligand binding assay using recombinant hGlyT1 expressing cell membranes; conditions: 0.5 nM [3H]-(R)-NPTS, apparent Ki via Cheng-Prusoff, read-out: [3H]-(R)-NPTS bindung Ki
T1 construct: expressed in transfected cells; host or cells: recombinant hGlyT1-expressing cells
T1 sequence (P48067 1-706): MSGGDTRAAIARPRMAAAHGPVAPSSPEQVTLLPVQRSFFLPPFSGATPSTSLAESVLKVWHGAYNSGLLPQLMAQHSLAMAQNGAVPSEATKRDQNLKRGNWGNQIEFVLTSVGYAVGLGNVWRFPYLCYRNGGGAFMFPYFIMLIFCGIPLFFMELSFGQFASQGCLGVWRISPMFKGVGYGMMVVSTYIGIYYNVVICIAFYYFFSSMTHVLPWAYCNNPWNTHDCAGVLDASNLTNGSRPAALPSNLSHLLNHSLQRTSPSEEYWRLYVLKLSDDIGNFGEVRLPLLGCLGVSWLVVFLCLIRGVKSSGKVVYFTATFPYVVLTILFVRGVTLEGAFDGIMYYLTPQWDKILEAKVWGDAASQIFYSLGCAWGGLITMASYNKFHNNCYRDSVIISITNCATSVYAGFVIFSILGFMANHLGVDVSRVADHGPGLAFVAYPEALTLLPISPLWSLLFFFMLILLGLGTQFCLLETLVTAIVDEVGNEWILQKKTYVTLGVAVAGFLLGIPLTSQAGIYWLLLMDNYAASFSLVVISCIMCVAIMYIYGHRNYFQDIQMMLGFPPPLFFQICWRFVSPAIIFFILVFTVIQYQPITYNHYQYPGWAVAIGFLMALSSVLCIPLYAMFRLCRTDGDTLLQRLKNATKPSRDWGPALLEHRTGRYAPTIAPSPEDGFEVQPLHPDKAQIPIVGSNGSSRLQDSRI
Method: 2. [^3H]-(R)-NPTS Radioligand Binding Assays using Recombinant hGlyT1 Expressing Cell Membranes:
Radioligand binding to human GlyT1c transporter-expressing membranes was measured in duplicate in a total volume of 200 μl in 96-well plates. To 100 μl of membrane suspension (yielding a final membrane protein concentration of 50 μg/ml) in assay buffer (120 mM NaCl, 2 mM KCl, 10 mM Hepes, 1 mM MgCl2, 1 mM CaCl2, pH 7.5) […] of [^3H]-(R)NPTS (0.5 nM final) were added in assay buffer. For competition experiments 10 μl of buffer or unlabeled compound solution obtained from dilution series of test compounds in DMSO followed. An intermediate 1:10 dilution in assay buffer yielded a final DMSO concentration of 1%. Non-specific binding was determined in the presence of 10 μM Org24598 (or its racemate Org24461) for [^3H]-(R)-NPTS. After incubation at room temperature for 1 h, the incubation mixture was harvested (Tomtec Mach III U Harvester) through 96-well GF/B filter plates (PerkinElmer), presoaked for 1 h with 40 μl per well of 0.1% polyethylene-imine (PEI). After washing twice with ice-cold 50 mM Tris-HCl pH 7.4 buffer, drying and addition of 35 μl scintillator (BetaplateScint, PerkinElmer) per well followed. The radioactivity was determined by liquid scintillation spectrometry in a MicroBeta (PerkinElmer) plate counter.
Data analysis: For binding of [^3H]-(R)-NPTS to cell membranes, the calculation of Kd and Bmax values from the saturation binding assays and the IC50 values from the displacement binding was performed by iterative non-linear regression analysis adapted from the ‘Ligand’ program (Munson and Rodbard, 1980). Radioligand displacement curves in absence or in presence of increasing concentrations of tested compounds were fitted using a one-site fit and the apparent Ki values were calculated from the IC50 values using the Cheng-Prusoff equation (Cheng and Prusoff 1973).

[2] = target: T2, Human GlyT1c (Homo sapiens, UniProt P48067); experiment: Glycine uptake in recombinant hGlyT1 expressing cells; type: cell-based; conditions: hGlyT1c_5_CHO cells; [3H]-glycine uptake, 60-120 min
T2 construct: expressed in transfected cells; host or cells: CHO (hGlyT1c_5_CHO clone)
T2 sequence (P48067 1-706): T1 sequence (P48067 1-706)
Method: 1. Glycine Uptake in Recombinant hGlyT1 Expressing Cells:
Human GlyT1c expressing recombinant hGlyT1c—5_CHO cells were plated at 20,000 cells per well in 96 well Cytostar-T scintillation microplates (Amersham Biosciences) and cultured to sub-confluency for 24 h. For glycine uptake assays the culture medium was aspirated and the cells were washed once with 100 μl HBSS (Gibco BRL, #14025-050) with 5 mM L-Alanine (Merck #1007). 80 μl HBSS buffer were added, followed by 10 μl inhibitor or vehicle (10% DMSO) and 10 μl [^3H]-glycine (TRK71, Amersham Biosciences) to a final concentration of […] for initiation of glycine uptake. The plates were placed in a Wallac Microbeta (PerkinElmer) and continuously counted by solid phase scintillation spectrometry during up to 3 hours. Nonspecific uptake was determined in the presence of 10 μM Org24598. IC50 calculations were made by four-parametric logistic nonlinear regression analysis (GraphPad Prism) using determinations within the range of linear increase of [^3H]-glycine incorporation between 60 and 120 min.

Row | SMILES | Ki [1] | IC50 [2]
1 | Cc1cc(NCc2ccc(Cl)c(Cl)c2)c2cccc(OCCNS(=O)(=O)c3ccc4ccccc4c3)c2n1 [Example 28, Naphthyl-2-sulfonic {2-[4-(3,4-dichlorobenzylamino)-2-methylquinolin-8-yloxy]-ethyl}-amide] | ≤ 100 nM | ≤ 1000 nM
2 | Cc1cc(NCc2ccc(Cl)c(Cl)c2)c2cccc(OCCNS(=O)(=O)C(F)(F)F)c2n1 [Example 29, N-{2-[4-(3,4-Dichlorobenzylamino)-2-methylquinolin-8-yloxy]-ethyl}-C,C,C-trifluoromethanesulfonamide] | ≤ 100 nM | ≤ 100 nM
3 | Cc1cc(NCc2ccc(Cl)c(Cl)c2)c2cccc(OCCNS(=O)(=O)c3cccnc3)c2n1 [Example 30, Pyridine-3-sulfonic {2-[4-(3,4-dichlorobenzylamino)-2-methylquinolin-8-yloxy]-ethyl}amide] | ≤ 10 nM | ≤ 100 nM
4 | Cc1cc(NCc2ccc(Cl)c(Cl)c2)c2cccc(OCCNS(=O)(=O)CC(C)C)c2n1 [Example 31, 2-Methylpropane-1-sulfonic {2-[4-(3,4-dichlorobenzylamino)-2-methylquinolin-8-yloxy]-ethyl}-amide] | ≤ 10 nM | ≤ 100 nM
5 | Cc1cc(NCc2ccc(Cl)c(Cl)c2)c2cccc(OCCNS(=O)(=O)Cc3ccccc3)c2n1 [Example 32, N-{2-[4-(3,4-Dichloro-benzylamino)-2-methylquinolin-8-yloxy]-ethyl}-C-phenyl-methanesulfonamide] | ≤ 100 nM | ≤ 1000 nM
6 | C=CCN1CCCC[C@H]1[C@@H](Nc1cc(C)nc2c(OCCNC(=O)OC(C)(C)C)cccc12)c1ccccc1 [Example 33, [2-(4-{[(S)—((S)-1-Allyl-piperidin-2-yl)-phenylmethyl]-amino}-2-methylquinolin-8-yloxy)ethyl]-carbamate tert-butyl ester] | ≤ 10000 nM | ≤ 10000 nM
7 | C=CCN1CCCC[C@H]1[C@@H](Nc1cc(C)nc2c(OCCN)cccc12)c1ccccc1 [Example 34, [(S)—((S)-1-Allylpiperidin-2-yl)-phenylmethyl]-[8-(2-aminoethoxy)-2-methylquinolin-4-yl]-amine] | ≤ 10000 nM | ≤ 100000 nM
8 | C=CCN1CCCC[C@H]1[C@@H](Nc1cc(C)nc2c(OCCNS(C)(=O)=O)cccc12)c1ccccc1 [Example 35, N-[2-(4-{[(S)—((S)-1-Allylpiperidin-2-yl)-phenylmethyl]-amino}-2-methylquinolin-8-yloxy)ethyl]methanesulfonamide] | ≤ 10000 nM | ≤ 10000 nM
9 | Cc1cc(NCc2ccc(Cl)cc2Cl)c2cccc(OCCN)c2n1 [Example 36, [8-(2-Aminoethoxy)-2-methylquinolin-4-yl]-(2,4-dichlorobenzyl)-amine] | ≤ 100 nM | ≤ 10000 nM
10 | Cc1cc(N[C@@H](c2ccccc2)[C@@H]2CCCCN2)c2cccc(OCCNS(C)(=O)=O)c2n1 [Example 37, N-(2-{2-Methyl-4-[((S)-phenyl-(S)-piperidin-2-yl-methyl)-amino]-quinolin-8-yloxy}-ethyl)methanesulfonamide dihydrochloride] | ≤ 100 nM | ≤ 1000 nM
11 | Cc1cc(NCc2ccc(Cl)cc2Cl)c2cccc(OCCNS(C)(=O)=O)c2n1 [Example 38, N-{2-[4-(2,4-Dichlorobenzylamino)-2-methylquinolin-8-yloxy]-ethyl}-methanesulfonamide] | ≤ 100 nM | ≤ 1000 nM
12 | Cc1cc(NCc2ccc(Cl)cc2Cl)c2cccc(OCCNS(=O)(=O)CC(C)C)c2n1 [Example 39, 2-Methylpropane-1-sulfonic {2-[4-(2,4-dichlorobenzylamino)-2-methylquinolin-8-yloxy]-ethyl}-amide] | ≤ 100 nM | ≤ 1000 nM
13 | Cc1cc(N[C@@H](c2ccccc2)[C@@H]2CCCCN2)c2cccc(OCCNS(=O)(=O)c3cccnc3)c2n1 [Example 40, Pyridin-3-sulfonic (2-{2-methyl-4-[((S)-phenyl-(S)-piperidin-2-yl-methyl)-amino]-quinolin-8-yloxy}-ethyl)-amide dihydrochloride] | ≤ 100 nM | ≤ 10000 nM
14 | Cc1cc(NCc2ccc(Cl)c(Cl)c2)c2cccc(O)c2n1 [Example 41, 4-(3,4-Dichlorobenzylamino)-2-methylquinolin-8-ol] | ≤ 100 nM | ≤ 1000 nM
15 | Cc1cc(NCc2ccc(Cl)c(Cl)c2)c2cccc(OC(C)C)c2n1 [Example 42, (3,4-Dichlorobenzyl)-(8-isopropoxy-2-methylquinolin-4-yl)-amine hydrochloride] | ≤ 100 nM | ≤ 100 nM
16 | CCCOc1cccc2c(NCc3ccc(Cl)c(Cl)c3)cc(C)nc12 [Example 43, (3,4-Dichlorobenzyl)-(2-methyl-8-propoxyquinolin-4-yl)-amine] | ≤ 100 nM | ≤ 1000 nM
17 | Cc1cc(NCc2ccc(Cl)c(Cl)c2)c2cccc(Oc3ccccc3)c2n1 [Example 44, (3,4-Dichlorobenzyl)-(2-methyl-8-phenoxyquinolin-4-yl)-amine] | ≤ 1000 nM | ≤ 1000 nM
18 | CCCOc1cccc2c(NCc3ccc(C(F)(F)F)c(Cl)c3)cc(C)nc12 [Example 45, (3-Chloro-4-trifluoromethylbenzyl)-(2-methyl-8-propoxyquinoline-4-yl)-amine hydrochloride] | ≤ 10000 nM | ≤ 10000 nM
19 | Cc1cc(NCc2ccc(Cl)c(Cl)c2)c2cccc(OCc3ccccc3)c2n1 [Example 46, (8-Benzyloxy-2-methylquinolin-4-yl)-(3,4-dichlorobenzyl)-amine] | ≤ 100 nM | ≤ 1000 nM
20 | Cc1cc(NCc2ccc(Cl)c(Cl)c2)c2cccc(OCCn3cccn3)c2n1 [Example 47, (3,4-Dichlorobenzyl)-[2-methyl-8-(2-pyrazol-1-yl-ethoxy)-quinolin-4-yl]-amine hydrochloride] | ≤ 100 nM | ≤ 1000 nM
21 | Cc1cc(NCc2ccc(Cl)c(Cl)c2)c2cccc(OCCN3CCOCC3)c2n1 [Example 48, (3,4-Dichlorobenzyl)-[2-methyl-8-(2-morpholin-4-yl-ethoxy)-quinolin-4-yl]-amine dihydrochloride] | ≤ 100 nM | ≤ 100 nM
22 | COCCOc1cccc2c(NCc3ccc(Cl)c(Cl)c3)cc(C)nc12 [Example 49, (3,4-Dichlorobenzyl)-[8-(2-methoxyethoxy)-2-methylquinolin-4-yl]-amine] | ≤ 100 nM | ≤ 100 nM
23 | Cc1cc(NCc2ccc(Cl)c(Cl)c2)c2cccc(OCCN(C)C)c2n1 [Example 50, (3,4-Dichlorobenzyl)-[8-(2-dimethylamino-ethoxy)-2-methylquinolin-4-yl]-amine dihydrochloride] | ≤ 100 nM | ≤ 1000 nM
24 | Cc1cc(NCc2ccc(Cl)c(Cl)c2)c2cccc(OCC(C)C)c2n1 [Example 51, (3,4-Dichlorobenzyl)-(8-isobutoxy-2-methylquinolin-4-yl)-amine] | ≤ 1000 nM | ≤ 1000 nM
